The source of these data is paper PMC9783573, “Introduction of a SiFA Moiety into the D-Glutamate Chain of DOTA-PP-F11N Results in Radiohybrid-Based CCK-2R-Targeted Compounds with Improved Pharmacokinetics In Vivo” (Pharmaceuticals, 2022).

Starred links: 1 amine or outer side, 2 acyl side, 3 side chain; linkers in the order of their positions; H or OH if unused. Non-standard residues stand in square brackets, D forms with d. Residues, ends and D or L forms follow the SMILES beside them. *: point of attachment. X1 = O=C(O)CN1CCN(CC(=O)O)CCN([C@H](CCC(=O)*)C(=O)O)CCN(CC(=O)O)CC1; Benzoyl(4-SiFtBu2) = CC(C)(C)[Si](F)(c1ccc(C(=O)*)cc1)C(C)(C)C; d(γGlu) = O=C(O)[C@@H](CCC(=O)[*:2])N[*:1]; Nle = CCCC[C@H](N)C(=O)O; dDap = NC[C@@H](N)C(=O)O

The nature of this data set: Lipophilicity, n-octanol/PBS (pH 7.4) distribution coefficient. The format is physicochemical. The following applies: 177Lu-labelled peptide; n-octanol/PBS pH 7.4; read-out: logD7.4. Here is the method:
Lipophilicity (depicted as octanol-phosphate-buffered saline solution (PBS, pH = 7.4) distribution coefficient, logD7.4) was determined via dissolving the ^177Lu-labelled peptide (approx. 1 MBq) in a mixture (1/1, v/v) of n-octanol and PBS. The suspension was vortexed in a reaction vial (1.5 mL) for 3 min at RT and the vial was centrifuged at 9000× […] for 5 min (Biofuge 15, Heraus Sepatech GmbH, Osterode, Germany). 200 μL aliquots of both layers were measured separately in a γ-counter (Perkin Elmer, Waltham, MA, USA). The experiment was repeated at least five times.
In the case of `CCCC[C@H](NC(=O)[C@H](Cc1c[nH]c2ccccc12)NC(=O)CNC(=O)[C@H](Cc1ccc(O)cc1)NC(=O)[C@H](C)NC(=O)[C@@H](CNC(=O)c1ccc([Si](F)(C(C)(C)C)C(C)(C)C)cc1)NC(=O)[C@@H](CCC(=O)O)NC(=O)[C@@H](CCC(=O)O)NC(=O)[C@@H](CCC(=O)O)NC(=O)[C@@H](CCC(=O)O)NC(=O)[C@@H](CCC(=O)O)NC(=O)[C@@H](CCC(=O)O)NC(=O)CC[C@H](C(=O)O)N1CCN(CC(=O)O)CCN(CC(=O)O)CCN(CC(=O)O)CC1)C(=O)N[C@@H](CC(=O)O)C(=O)N[C@@H](Cc1ccccc1)C(N)=O` [[nat/177Lu]Lu-(R)-DOTAGA-rhCCK-1, metal not drawn] (X1-[dE][dE][dE][dE][dE][dE][dDap](Benzoyl(4-SiFtBu2))AYGW[Nle]DF-NH2), the logD is -1.71 ± 0.1.

For `CCCC[C@H](NC(=O)[C@H](Cc1c[nH]c2ccccc12)NC(=O)CNC(=O)[C@H](Cc1ccc(O)cc1)NC(=O)[C@H](C)NC(=O)[C@@H](CCC(=O)O)NC(=O)[C@@H](CNC(=O)c1ccc([Si](F)(C(C)(C)C)C(C)(C)C)cc1)NC(=O)[C@@H](CCC(=O)O)NC(=O)[C@@H](CCC(=O)O)NC(=O)[C@@H](CCC(=O)O)NC(=O)[C@@H](CCC(=O)O)NC(=O)[C@@H](CCC(=O)O)NC(=O)CC[C@H](C(=O)O)N1CCN(CC(=O)O)CCN(CC(=O)O)CCN(CC(=O)O)CC1)C(=O)N[C@@H](CC(=O)O)C(=O)N[C@@H](Cc1ccccc1)C(N)=O` [[nat/177Lu]Lu-(R)-DOTAGA-rhCCK-2, metal not drawn] (X1-[dE][dE][dE][dE][dE][dDap](Benzoyl(4-SiFtBu2))[dE]AYGW[Nle]DF-NH2), the logD was -1.95 ± 0.09.

On to `CCCC[C@H](NC(=O)[C@H](Cc1c[nH]c2ccccc12)NC(=O)CNC(=O)[C@H](Cc1ccc(O)cc1)NC(=O)[C@H](C)NC(=O)[C@@H](CCC(=O)O)NC(=O)[C@@H](CCC(=O)O)NC(=O)[C@@H](CCC(=O)O)NC(=O)[C@@H](CNC(=O)c1ccc([Si](F)(C(C)(C)C)C(C)(C)C)cc1)NC(=O)[C@@H](CCC(=O)O)NC(=O)[C@@H](CCC(=O)O)NC(=O)[C@@H](CCC(=O)O)NC(=O)CC[C@H](C(=O)O)N1CCN(CC(=O)O)CCN(CC(=O)O)CCN(CC(=O)O)CC1)C(=O)N[C@@H](CC(=O)O)C(=O)N[C@@H](Cc1ccccc1)C(N)=O` [[nat/177Lu]Lu-(R)-DOTAGA-rhCCK-4, metal not drawn] (X1-[dE][dE][dE][dDap](Benzoyl(4-SiFtBu2))[dE][dE][dE]AYGW[Nle]DF-NH2), for which the logD is -2.19 ± 0.08.

On to `CCCC[C@H](NC(=O)[C@H](Cc1c[nH]c2ccccc12)NC(=O)CNC(=O)[C@H](Cc1ccc(O)cc1)NC(=O)[C@H](C)NC(=O)[C@@H](CCC(=O)O)NC(=O)[C@@H](CCC(=O)O)NC(=O)[C@@H](CCC(=O)O)NC(=O)[C@@H](CCC(=O)O)NC(=O)[C@@H](CNC(=O)c1ccc([Si](F)(C(C)(C)C)C(C)(C)C)cc1)NC(=O)[C@@H](CCC(=O)O)NC(=O)[C@@H](CCC(=O)O)NC(=O)CC[C@H](C(=O)O)N1CCN(CC(=O)O)CCN(CC(=O)O)CCN(CC(=O)O)CC1)C(=O)N[C@@H](CC(=O)O)C(=O)N[C@@H](Cc1ccccc1)C(N)=O` [[nat/177Lu]Lu-(R)-DOTAGA-rhCCK-5, metal not drawn] (X1-[dE][dE][dDap](Benzoyl(4-SiFtBu2))[dE][dE][dE][dE]AYGW[Nle]DF-NH2), for which the logD was -2.67 ± 0.05.

Regarding `CCCC[C@H](NC(=O)[C@H](Cc1c[nH]c2ccccc12)NC(=O)CNC(=O)[C@H](Cc1ccc(O)cc1)NC(=O)[C@H](C)NC(=O)[C@@H](CCC(=O)O)NC(=O)[C@@H](CCC(=O)O)NC(=O)[C@@H](CCC(=O)O)NC(=O)[C@@H](CCC(=O)O)NC(=O)[C@@H](CCC(=O)O)NC(=O)[C@@H](CNC(=O)c1ccc([Si](F)(C(C)(C)C)C(C)(C)C)cc1)NC(=O)[C@@H](CCC(=O)O)NC(=O)CC[C@H](C(=O)O)N1CCN(CC(=O)O)CCN(CC(=O)O)CCN(CC(=O)O)CC1)C(=O)N[C@@H](CC(=O)O)C(=O)N[C@@H](Cc1ccccc1)C(N)=O` [[nat/177Lu]Lu-(R)-DOTAGA-rhCCK-6, metal not drawn] (X1-[dE][dDap](Benzoyl(4-SiFtBu2))[dE][dE][dE][dE][dE]AYGW[Nle]DF-NH2), the logD was -2.22 ± 0.08.

As to `CCCC[C@H](NC(=O)[C@H](Cc1c[nH]c2ccccc12)NC(=O)CNC(=O)[C@H](Cc1ccc(O)cc1)NC(=O)[C@H](C)NC(=O)[C@@H](CCC(=O)O)NC(=O)[C@@H](CCC(=O)O)NC(=O)[C@@H](CCC(=O)O)NC(=O)[C@@H](CCC(=O)O)NC(=O)[C@@H](CCC(=O)O)NC(=O)[C@@H](CCC(=O)O)NC(=O)[C@@H](CNC(=O)c1ccc([Si](F)(C(C)(C)C)C(C)(C)C)cc1)NC(=O)CC[C@H](C(=O)O)N1CCN(CC(=O)O)CCN(CC(=O)O)CCN(CC(=O)O)CC1)C(=O)N[C@@H](CC(=O)O)C(=O)N[C@@H](Cc1ccccc1)C(N)=O` [[nat/177Lu]Lu-(R)-DOTAGA-rhCCK-7, metal not drawn] (X1-[dDap](Benzoyl(4-SiFtBu2))[dE][dE][dE][dE][dE][dE]AYGW[Nle]DF-NH2), the logD was -2.63 ± 0.08.

Take `CCCC[C@H](NC(=O)[C@H](Cc1c[nH]c2ccccc12)NC(=O)CNC(=O)[C@H](Cc1ccc(O)cc1)NC(=O)[C@H](C)NC(=O)[C@@H](CCC(=O)O)NC(=O)[C@@H](CCC(=O)O)NC(=O)[C@@H](CCC(=O)O)NC(=O)[C@@H](CCC(=O)O)NC(=O)[C@@H](CCC(=O)O)NC(=O)[C@@H](CCC(=O)O)NC(=O)[C@@H](CCC(=O)O)NC(=O)[C@@H](CNC(=O)c1ccc([Si](F)(C(C)(C)C)C(C)(C)C)cc1)NC(=O)CC[C@H](C(=O)O)N1CCN(CC(=O)O)CCN(CC(=O)O)CCN(CC(=O)O)CC1)C(=O)N[C@@H](CC(=O)O)C(=O)N[C@@H](Cc1ccccc1)C(N)=O` [[nat/177Lu]Lu-(R)-DOTAGA-rhCCK-8, metal not drawn] (X1-[dDap](Benzoyl(4-SiFtBu2))[dE][dE][dE][dE][dE][dE][dE]AYGW[Nle]DF-NH2): the logD is -2.19 ± 0.08.

As to `CCCC[C@H](NC(=O)[C@H](Cc1c[nH]c2ccccc12)NC(=O)CNC(=O)[C@H](Cc1ccc(O)cc1)NC(=O)[C@H](C)NC(=O)[C@@H](CNC(=O)c1ccc([Si](F)(C(C)(C)C)C(C)(C)C)cc1)NC(=O)CC[C@@H](NC(=O)CC[C@@H](NC(=O)CC[C@@H](NC(=O)CC[C@@H](NC(=O)CC[C@@H](NC(=O)CC[C@@H](NC(=O)CC[C@H](C(=O)O)N1CCN(CC(=O)O)CCN(CC(=O)O)CCN(CC(=O)O)CC1)C(=O)O)C(=O)O)C(=O)O)C(=O)O)C(=O)O)C(=O)O)C(=O)N[C@@H](CC(=O)O)C(=O)N[C@@H](Cc1ccccc1)C(N)=O` [[nat/177Lu]Lu-(R)-DOTAGA-rhCCK-10, metal not drawn] ({X1-d(γGlu)-d(γGlu)-d(γGlu)-d(γGlu)-d(γGlu)-d(γGlu)}-[dDap](Benzoyl(4-SiFtBu2))AYGW[Nle]DF-NH2), the logD was -2.15 ± 0.08.

Regarding `CCCC[C@H](NC(=O)[C@H](Cc1c[nH]c2ccccc12)NC(=O)CNC(=O)[C@H](Cc1ccc(O)cc1)NC(=O)[C@H](C)NC(=O)CC[C@@H](NC(=O)[C@@H](CNC(=O)c1ccc([Si](F)(C(C)(C)C)C(C)(C)C)cc1)NC(=O)CC[C@@H](NC(=O)CC[C@@H](NC(=O)CC[C@@H](NC(=O)CC[C@@H](NC(=O)CC[C@@H](NC(=O)CC[C@H](C(=O)O)N1CCN(CC(=O)O)CCN(CC(=O)O)CCN(CC(=O)O)CC1)C(=O)O)C(=O)O)C(=O)O)C(=O)O)C(=O)O)C(=O)O)C(=O)N[C@@H](CC(=O)O)C(=O)N[C@@H](Cc1ccccc1)C(N)=O` [[nat/177Lu]Lu-(R)-DOTAGA-rhCCK-11, metal not drawn] ({X1-d(γGlu)-d(γGlu)-d(γGlu)-d(γGlu)-d(γGlu)}-[dDap](Benzoyl(4-SiFtBu2))[d(γGlu)]AYGW[Nle]DF-NH2), the logD is -2.23 ± 0.07.

Turning to `CCCC[C@H](NC(=O)[C@H](Cc1c[nH]c2ccccc12)NC(=O)CNC(=O)[C@H](Cc1ccc(O)cc1)NC(=O)[C@H](C)NC(=O)CC[C@@H](NC(=O)CC[C@@H](NC(=O)[C@@H](CNC(=O)c1ccc([Si](F)(C(C)(C)C)C(C)(C)C)cc1)NC(=O)CC[C@@H](NC(=O)CC[C@@H](NC(=O)CC[C@@H](NC(=O)CC[C@@H](NC(=O)CC[C@H](C(=O)O)N1CCN(CC(=O)O)CCN(CC(=O)O)CCN(CC(=O)O)CC1)C(=O)O)C(=O)O)C(=O)O)C(=O)O)C(=O)O)C(=O)O)C(=O)N[C@@H](CC(=O)O)C(=O)N[C@@H](Cc1ccccc1)C(N)=O` [[nat/177Lu]Lu-(R)-DOTAGA-rhCCK-12, metal not drawn] ({X1-d(γGlu)-d(γGlu)-d(γGlu)-d(γGlu)}-[dDap](Benzoyl(4-SiFtBu2))[d(γGlu)][d(γGlu)]AYGW[Nle]DF-NH2), the logD was -2.34 ± 0.05.

As for `CCCC[C@H](NC(=O)[C@H](Cc1c[nH]c2ccccc12)NC(=O)CNC(=O)[C@H](Cc1ccc(O)cc1)NC(=O)[C@H](C)NC(=O)CC[C@@H](NC(=O)CC[C@@H](NC(=O)CC[C@@H](NC(=O)[C@@H](CNC(=O)c1ccc([Si](F)(C(C)(C)C)C(C)(C)C)cc1)NC(=O)CC[C@@H](NC(=O)CC[C@@H](NC(=O)CC[C@@H](NC(=O)CC[C@H](C(=O)O)N1CCN(CC(=O)O)CCN(CC(=O)O)CCN(CC(=O)O)CC1)C(=O)O)C(=O)O)C(=O)O)C(=O)O)C(=O)O)C(=O)O)C(=O)N[C@@H](CC(=O)O)C(=O)N[C@@H](Cc1ccccc1)C(N)=O` [[nat/177Lu]Lu-(R)-DOTAGA-rhCCK-13, metal not drawn] ({X1-d(γGlu)-d(γGlu)-d(γGlu)}-[dDap](Benzoyl(4-SiFtBu2))[d(γGlu)][d(γGlu)][d(γGlu)]AYGW[Nle]DF-NH2), the logD was -2.57 ± 0.06.
